Assay results published in PubChem BioAssay (NCI).
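Five concentrations, 48 hours, 96-well plates. TGI denotes the concentration required for complete inhibition of growth.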

Columns and labels:
Assay in all cases: NCI tumour cell line growth inhibition, 48 h
[1] = system: OVCAR-3 ovarian
[2] = system: SK-MEL-2 melanoma
[3] = system: BT-549 breast
[4] = system: COLO 205 colon
[5] = system: HS 578T breast
[6] = system: NCI/ADR-RES ovarian
[7] = system: MCF7 breast
[8] = system: SF-268 CNS
[9] = system: OVCAR-8 ovarian
[10] = system: SNB-19 CNS
[11] = system: A549 NSCLC
[12] = system: UACC-62 melanoma
[13] = system: T-47D breast
[14] = system: SNB-75 CNS
[15] = system: HCT-116 colon
[16] = system: SK-MEL-28 melanoma
[17] = system: NCI-H522 lung
[18] = system: MOLT-4 leukemia
[19] = system: MDA-N
[20] = system: DMS 114 small cell lung

Row | Compound | TGI [1] | TGI [2] | TGI [3] | TGI [4] | TGI [5] | TGI [6] | TGI [7] | TGI [8] | TGI [9] | TGI [10] | TGI [11] | TGI [12] | TGI [13] | TGI [14] | TGI [15] | TGI [16] | TGI [17] | TGI [18] | TGI [19] | TGI [20]
1 | COc1ccc2c(c1)-c1nc(=S)n(CCCN(C)C)c3ccc([N+](=O)[O-])c(c13)N2 | 18.5 µM | 31.6 µM | 21.7 µM | 17.6 µM | 5.6 µM | 9.23 µM | 3.01 µM | 21.7 µM | 6.5 µM | 11 µM | 14.8 µM | 25.9 µM | 40.8 µM | 22.8 µM | 2.93 µM | 2.81 µM | 2.98 µM | 2.15 µM | 2.2 µM | 
2 | O=C(O)c1ccccc1/C=N/NC1=NCCN1 | > 100 µM | > 100 µM | > 100 µM | > 100 µM | > 100 µM | > 100 µM | > 100 µM | > 100 µM | > 100 µM | > 100 µM | > 100 µM | > 100 µM | > 100 µM | > 100 µM | > 100 µM | > 100 µM | > 100 µM | > 100 µM | > 100 µM | 
3 | COC(=O)c1cc(C)ccc1C1CN=NC12Cc1ccc(C)cc1C2=O (centres undefined) | > 100 µM | > 100 µM | > 100 µM | 29.3 µM | > 100 µM | > 100 µM | 85.8 µM | > 100 µM | > 100 µM | > 100 µM | > 100 µM | > 100 µM | > 100 µM | > 100 µM | > 100 µM | > 100 µM | 98.9 µM | 80.6 µM | > 100 µM | 
4 | Ic1ccc2c(c1)N(c1ccccc1)c1cc(N=c3ccc4nc5ccc(I)cc5n(-c5ccccc5)c-4c3)ccc1N2 | 16.1 µM | > 100 µM | > 100 µM | 71.5 µM | > 100 µM | > 100 µM | > 100 µM | > 100 µM | > 100 µM | > 100 µM | > 100 µM | > 100 µM | > 100 µM | > 100 µM | > 100 µM | > 100 µM | 69 µM | > 100 µM | > 100 µM | 
5 | O=c1[nH]nc(-c2ccccc2)n1/N=C/c1ccc([N+](=O)[O-])cc1 | > 100 µM | 67.3 µM | > 100 µM | > 100 µM | 98.2 µM | > 68.9 µM | > 100 µM | > 87.2 µM | 37.1 µM | > 100 µM | > 100 µM | > 100 µM | > 60.2 µM | 34.9 µM | > 100 µM | > 100 µM | > 100 µM | > 100 µM | > 100 µM | 
6 | CC(C)NC(NC(C)C)=C(S(=O)(=O)C(F)(F)C(F)(F)C(F)(F)C(F)(F)F)S(=O)(=O)C(F)(F)C(F)(F)C(F)(F)C(F)(F)F | > 100 µM | > 100 µM | > 100 µM | > 100 µM | > 100 µM | > 100 µM | > 100 µM | > 100 µM | > 100 µM | > 100 µM | > 100 µM | > 100 µM | > 100 µM | > 100 µM | > 100 µM | > 100 µM | > 100 µM | > 100 µM | > 100 µM | 
7 | Cc1cccc(C(C)C)c1NC(=O)/C(Cc1c([N+](=O)[O-])cccc1[N+](=O)[O-])=N/NC(=O)CC#N | > 100 µM | > 100 µM |  | > 100 µM |  |  |  | > 100 µM |  | > 100 µM | > 100 µM | > 100 µM |  | > 100 µM | > 100 µM | > 100 µM | > 100 µM | > 100 µM |  | > 100 µM
8 | N#Cc1c(=O)n(-c2ccccc2)c(O)c2c(N)n[nH]c12 | > 100 µM | > 100 µM | > 100 µM | > 100 µM | > 100 µM | > 100 µM | > 100 µM | > 100 µM | > 100 µM | > 100 µM | > 100 µM | > 100 µM | > 100 µM | > 100 µM | > 100 µM | > 100 µM | > 100 µM | > 100 µM | > 100 µM | 
9 | Cc1cc2cc3c(cc2c(-c2ccc([N+](=O)[O-])cc2)n1)OCO3 | > 100 µM | > 100 µM | 73.7 µM | > 100 µM | > 100 µM | > 100 µM | > 100 µM | > 100 µM | > 100 µM | > 100 µM | > 100 µM | 67.2 µM | > 100 µM | 58.4 µM | > 100 µM | > 100 µM | 40.6 µM | > 100 µM | > 100 µM | 
10 | Cc1ccc(S(=O)(=O)c2ccsc2NC(=O)C(F)(F)F)cc1 | > 100 µM | 94.7 µM | > 100 µM | 24.5 µM | > 100 µM | > 100 µM | > 100 µM | > 100 µM | > 100 µM | > 100 µM | > 100 µM | > 100 µM | > 100 µM | 77.8 µM | 95.3 µM | > 100 µM | > 100 µM | 45.9 µM | 98.9 µM | 
11 | CCOC(=O)c1oc2cc3c(c4c2c1-c1ccccc1N4C)C=CC(C)(C)O3 | 45.3 µM | > 76.4 µM | 59.6 µM | > 100 µM | 75.1 µM | 27.6 µM | 26.8 µM | > 49.3 µM | 27.1 µM | > 54.9 µM | > 100 µM | > 43.4 µM | > 84.4 µM | 36.4 µM | > 100 µM | > 95.4 µM | 42.6 µM | > 100 µM | > 100 µM | 
12 | CC1OC(OC2C(OC(=O)[C@]34CCC(C)(C)CC3C3=CCC5[C@@]6(C)C[C@H](O)[C@H](OC7OC(CO)C(O)C(O)C7N)[C@@](C)(C(=O)O)C6CC[C@@]5(C)C3(C)CC4)OCC(O)C2O)C(O)C(O)C1OC1OCC(O)C(O)C1O (some centres undefined) | > 100 µM | > 100 µM |  | > 100 µM |  |  |  | > 100 µM | > 100 µM | > 100 µM | > 100 µM | > 100 µM |  | > 100 µM |  | > 100 µM | > 100 µM | > 100 µM |  | > 100 µM
13 | O=C1c2ccccc2C(=O)c2c1cc(S(=O)(=O)O)c(O)c2O | > 100 µM | > 100 µM |  | > 100 µM |  |  |  | > 100 µM | > 100 µM |  | > 100 µM | > 100 µM |  | > 100 µM | > 100 µM | > 100 µM | > 100 µM | > 100 µM |  | > 100 µM
